Data: patent publication US20100267561A1, “HERBICIDAL PYRIDAZINONE DERIVATIVES” (priority 2007, published 2010)

What was measured:
Assay in all cases: Test E pre-/postemergence plant response
Assay type in all cases: in vivo
[1] = system: tropical (T.) spiderwort (Commelina benghalensis); settings: scale 0 to 100
Outline: (§1)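 Pre- and postemergence greenhouse test; compounds formulated in non-phytotoxic solvent with surfactant, postemergence plants 2–18 cm (1- to 4-leaf stage). Visual rating against untreated controls after 14 to 21 days, on a 0 (no effect) to 100 (complete control) scale.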

[2] = system: common chickweed (Stellaria media); settings: scale 0 to 100
Outline: as §1

[3] = system: Russian thistle (Salsola kali); settings: Preemergence, scale 0 to 100
Outline: as §1

[4] = system: Virginia (V.) dayflower (Commelina virginica); settings: scale 0 to 100
Outline: as §1

kochia (Kochia scoparia) = settings: Preemergence, scale 0 to 100
Outline: as §1

[5] = system: common sowthistle (Sonchus oleraceous); settings: scale 0 to 100
Outline: as §1

[6] = system: prickly sida (Sida spinosa); settings: scale 0 to 100
Outline: as §1

Cc1cc(-c2ccc(Cl)cc2)nn1-c1c(OS(=O)(=O)c2ccccc2)cnn(C)c1=O [Compound 35]
0: Plant response rating, Spiderwort, T. ([1]; 16 g ai/ha, Preemergence) | Plant response rating, Spiderwort, T. ([1]; 31 g ai/ha, Preemergence) | Plant response rating, Spiderwort, T. ([1]; 62 g ai/ha, Preemergence) | Plant response rating, Spiderwort, T. ([1]; Postemergence, 8 g ai/ha) | Plant response rating, Spiderwort, T. ([1]; Postemergence, 16 g ai/ha) | Plant response rating, Spiderwort, T. ([1]; Postemergence, 31 g ai/ha) | Plant response rating, Spiderwort, T. ([1]; Postemergence, 62 g ai/ha) | Plant response rating, Chickweed ([2]; Postemergence, 8 g ai/ha) | Plant response rating, Chickweed ([2]; Postemergence, 16 g ai/ha) | Plant response rating, Chickweed ([2]; Postemergence, 31 g ai/ha)

CCOC(=O)Oc1cnn(C)c(=O)c1-n1nc(-c2ccc(Cl)cc2)cc1C [Compound 53]
0: Plant response rating, Thistle, Russian ([3]; 16 g ai/ha) | Plant response rating, Thistle, Russian ([3]; 31 g ai/ha) | Plant response rating, Thistle, Russian ([3]; 62 g ai/ha) | Plant response rating, Dayflower, V. ([4]; 16 g ai/ha, Preemergence) | Plant response rating, Dayflower, V. ([4]; 31 g ai/ha, Preemergence) | Plant response rating, Dayflower, V. ([4]; 62 g ai/ha, Preemergence) | Plant response rating, Dayflower, V. ([4]; Postemergence, 8 g ai/ha) | Plant response rating, Dayflower, V. ([4]; Postemergence, 16 g ai/ha) | Plant response rating, Dayflower, V. ([4]; Postemergence, 31 g ai/ha) | Plant response rating, Dayflower, V. ([4]; Postemergence, 62 g ai/ha) | Plant response rating, Kochia (kochia (Kochia scoparia); 16 g ai/ha) | Plant response rating, Kochia (kochia (Kochia scoparia); 31 g ai/ha) | Plant response rating, Sowthistle ([5]; 16 g ai/ha, Preemergence) | Plant response rating, Sowthistle ([5]; 31 g ai/ha, Preemergence) | Plant response rating, Sowthistle ([5]; 62 g ai/ha, Preemergence) | Plant response rating, Sowthistle ([5]; Postemergence, 8 g ai/ha) | Plant response rating, Sowthistle ([5]; Postemergence, 16 g ai/ha) | Plant response rating, Sowthistle ([5]; Postemergence, 31 g ai/ha) | Plant response rating, Sowthistle ([5]; Postemergence, 62 g ai/ha) | Plant response rating, Prickly Sida ([6]; 16 g ai/ha, Preemergence) | Plant response rating, Prickly Sida ([6]; 31 g ai/ha, Preemergence) | Plant response rating, Prickly Sida ([6]; 62 g ai/ha, Preemergence) | Plant response rating, Prickly Sida ([6]; Postemergence, 8 g ai/ha) | Plant response rating, Prickly Sida ([6]; Postemergence, 16 g ai/ha) | Plant response rating, Prickly Sida ([6]; Postemergence, 31 g ai/ha) | Plant response rating, Prickly Sida ([6]; Postemergence, 62 g ai/ha) | Plant response rating, Chickweed ([2]; 62 g ai/ha, Preemergence)

Cc1cc(-c2ccc(Cl)cc2)nn1-c1c(OC(=O)Oc2ccccc2)cnn(C)c1=O [Compound 54]
0: Plant response rating, Dayflower, V. ([4]; 8 g ai/ha, Postemergence) | Plant response rating, Dayflower, V. ([4]; Postemergence, 16 g ai/ha) | Plant response rating, Dayflower, V. ([4]; Postemergence, 31 g ai/ha) | Plant response rating, Dayflower, V. ([4]; Postemergence, 62 g ai/ha) | Plant response rating, Sowthistle ([5]; 8 g ai/ha, Postemergence) | Plant response rating, Sowthistle ([5]; Postemergence, 16 g ai/ha) | Plant response rating, Sowthistle ([5]; Postemergence, 31 g ai/ha) | Plant response rating, Sowthistle ([5]; Postemergence, 62 g ai/ha) | Plant response rating, Prickly Sida ([6]; 8 g ai/ha, Postemergence) | Plant response rating, Prickly Sida ([6]; Postemergence, 16 g ai/ha) | Plant response rating, Prickly Sida ([6]; Postemergence, 31 g ai/ha) | Plant response rating, Prickly Sida ([6]; Postemergence, 62 g ai/ha)
